Results published in patent publication US9169255B2, “Caffeinated compounds and compositions for treatment of amyloid diseases and synucleinopathies” (ProteoTech Inc, priority 2011, dated 2015).

Key:
Format in all cases: biochemical
Aβ 1-42 fibrils [1] = biological target: T1, Aβ 1-42 fibrils (Homo sapiens, UniProt P05067); test: Congo red binding assay, Aβ 1-42 fibrils; settings: for Congo Red Binding % Inhibition: 2-day incubation
T1 construct: pre-fibrillized human Aβ 1-42 (rPeptide); purchased rPeptide
T1 sequence (P05067 672-713 limits assumed): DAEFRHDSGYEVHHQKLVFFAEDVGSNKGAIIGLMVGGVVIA
Procedure: In the Congo red binding assay the ability of a test compound to alter β-amyloid binding to Congo red is quantified. In this assay, Aβ 1-42 (as prepared for the Thio T assay) and test compounds were incubated for 2 days and then vacuum filtered through a 0.2 μm filter. The amount of Aβ 1-42 retained in the filter was then quantitated following staining of the filter with Congo red. After appropriate washing of the filter, any lowering of the Congo red color on the filter in the presence of the test compound (compared to the Congo red staining of the amyloid protein in the absence of the test compound) was indicative of the test compound's ability to diminish/alter the amount of aggregated and congophilic Aβ.

Aβ 1-42 fibrils [2] = biological target: T1, Aβ 1-42 fibrils; test: Thioflavin T fluorometry, disruption of pre-fibrillized Aβ 1-42; settings: for Thioflavin T fluorometry % Inhibition: 2-day incubation; for effect against Aβ fibrils/aggregates at substoichiometric concentrations: test compound:Aβ molar ratios of 0.1:1 and 0.05:1
Text: In this assay Thioflavin T binds specifically to fibrillar amyloid, and this binding produces a fluorescence enhancement at 485 nm that is directly proportional to the amount of amyloid fibrils formed. The higher the fluorescence, the greater the amount of amyloid fibrils formed (Naki et al., Lab. Invest. 65:104-110, 1991; Levine III, Protein Sci. 2:404-410, 1993; Amyloid: Int. J. Exp. Clin. […] The emission fluorescence was read at 485 nm (444 nm excitation wavelength) using an ELISA plate fluorometer after subtraction with buffer alone or compound alone, as blank.

wild-type α-synuclein = wild-type α-synuclein (Homo sapiens, UniProt P37840); test: Thioflavin T fluorometry, inhibition of formation of α-synuclein β-sheet from fresh α-synuclein
Procedure: To test whether the compounds can inhibit formation of α-synuclein β-sheet, the same assay as described in Example 2, was utilized but the α-synuclein was fresh and not pre-fibrillized. Fresh wild-type α-synuclein was dissolved in a buffer containing 9.5 mM phosphate, 137 mM sodium chloride and 2.7 mM potassium chloride (phosphate-buffered saline; PBS), and the pH was adjusted to pH 7.4. This solution was then lyophilized and dissolved in 1.0 ml deionized water at 0.5 mg/ml (35 μM). As indicated above the test compounds (typically at test compound:α-synuclein molar ratios of 10:1, 1:1, 0.1:1, and 0.01:1) were then added to the α-synuclein. Following 24-38 hours of co-incubation, the incubation mixtures were diluted 1:10 and 50 μl of each diluted incubation mixture was transferred into a 96-well microtiter plate containing 150 μl of distilled water and 50 μl of a Thioflavin T solution (i.e. 500 μM Thioflavin T in 250 mM phosphate buffer, pH 6.8). The final concentration of α-synuclein was 0.7 μM and the concentration of Thioflavin T reagent was 100 μM in 50 mM phosphate buffer, pH 6.8. In some experiments, 200 μl of each diluted incubation mixture was combined in the 96-well microtiter plate with 50 μl of the 500 μM Thioflavin T solution to give 2.8 μM α-synuclein in the presence of 100 μM Thioflavin T reagent. The fluorescence was read at 485 nm (444 nm excitation wavelength) using an ELISA plate fluorometer after subtraction with buffer alone or compound alone, as blank. Positive control compound 1 performed nearly identically in inhibiting α-synuclein aggregation regardless of whether 0.7 μM or 2.8 μM α-synuclein was subsequently used in the Thioflavin T reaction.

α-synuclein fibrils = biological target: T2, α-synuclein fibrils (Homo sapiens, UniProt P37840); test: Congo red binding assay, pre-formed α-synuclein fibrils; settings: 2-day incubation
T2 construct: purchased rPeptide, Bogart, Calif
Procedure: In this set of studies, the efficacy of certain compounds provided herein to cause a disassembly/disruption/disaggregation of pre-formed fibrils of Parkinson's disease (i.e. consisting of α-synuclein fibrils) was analyzed. For the studies described below in Parts A and B, 69 μM of α-synuclein (rPeptide, Bogart, Calif.) was first incubated at 37° C. for 4 days in 20 mM sodium acetate buffer at pH 4 with circular shaking (1,300 rpm) to cause α-synuclein aggregation and fibril formation.
In the Congo red binding assay, the ability of a given test compound to alter α-synuclein aggregate binding to Congo red is quantified. In this assay Congo red binds specifically to fibrillar protein, and this binding is directly proportional to the amount of fibrils formed. Following initial α-synuclein fibrilization as described above, α-synuclein aggregates and test compounds were incubated for 2 days and then vacuum filtered through a 0.2 μm filter. The amount of α-synuclein retained in the filter was then quantitated following staining of the filter with Congo red. After appropriate washing of the filter, any lowering of the Congo red color on the filter in the presence of the test compound (compared to the Congo red staining of the protein in the absence of the test compound—i.e. α-synuclein alone) was indicative of the test compound's ability to diminish/alter the amount of aggregated and congophilic α-synuclein and thus cause disassembly/disruption/disaggregation of α-synuclein fibrils.
In one study, the ability of α-synuclein fibrils to bind Congo red following a 2-day incubation of α-synuclein in the absence or presence of increasing amounts of the compounds provided herein, including positive reference (control) compounds (at test compound:α-synuclein molar ratios of 10:1, 1:1, 0.1:1, 0.01:1) was determined. The results of this study indicate that compounds of this invention disrupt/disaggregate/disassemble pre-formed α-synuclein aggregates as indicated by their ability to inhibit Parkinson's disease type α-synuclein fibril binding to Congo red.

[3] = compound:peptide molar ratio 0.1:1
[4] = compound:peptide molar ratio 1:1
[5] = compound:peptide molar ratio 5:1
[6] = compound:peptide molar ratio 10:1
[7] = compound:peptide molar ratio 0.05:1
[8] = compound:peptide molar ratio 0.01:1

Compound	Congo Red Binding % Inhibition (Aβ 1-42 fibrils [1]; [3])	Congo Red Binding % Inhibition (Aβ 1-42 fibrils [1]; [4])	Congo Red Binding % Inhibition (Aβ 1-42 fibrils [1]; [5])	Congo Red Binding % Inhibition (Aβ 1-42 fibrils [1]; [6])	Thioflavin T fluorometry % Inhibition (Aβ 1-42 fibrils [2]; [7])	Thioflavin T fluorometry % Inhibition (Aβ 1-42 fibrils [2]; [3])	Thioflavin T fluorometry % Inhibition (Aβ 1-42 fibrils [2]; [4])	Thioflavin T fluorometry % Inhibition (Aβ 1-42 fibrils [2]; [5])	Thioflavin T fluorometry % Inhibition (Aβ 1-42 fibrils [2]; [6])	effect against Aβ fibrils/aggregates at substoichiometric concentrations (Aβ 1-42 fibrils [2])	ThioT Assay % Inhibition (wild-type α-synuclein; [8])	ThioT Assay % Inhibition (wild-type α-synuclein; [3])	ThioT Assay % Inhibition (wild-type α-synuclein; [4])	ThioT Assay % Inhibition (wild-type α-synuclein; [6])	Congo Red Binding- % Inhibition (α-synuclein fibrils; [8])	Congo Red Binding- % Inhibition (α-synuclein fibrils; [3])	Congo Red Binding- % Inhibition (α-synuclein fibrils; [4])	Congo Red Binding- % Inhibition (α-synuclein fibrils; [6])	inhibition of Aβ 1-42 fibril binding to Congo red (Aβ 1-42 fibrils [1]; all concentrations tested)	inhibition of Aβ 1-42 fibrils (Thioflavin T fluorometry) (Aβ 1-42 fibrils [2]; all concentrations tested)
1,3-dimethyl-7-(3′,4′-dibenzyloxy)benzyl-8-(3′,4′-dihydroxyphenyl)xanthine [PD-154]	0%	0%	0%	0%	43%	36%	60%	74%	80%	effective	8%	44%	89%	89%	3%	0%	12%	0%	–	–
Cn1c(=O)c2c(ncn2C)n(C)c1=O [Caffeine, reference compound]	–	0%	0%	1%	–	–	0%	0%	8%	–	0%	0%	0%	0%	–	–	–	0%	no significant inhibition	no significant inhibition
Cn1cnc2c1c(=O)n(Cc1ccc(O)c(O)c1)c(=O)n2Cc1ccc(O)c(O)c1 [PD-150, 7-Methyl-1,3-bis(3′,4′-dihydroxy)benzylxanthine]	10%	18%	46%	60%	41%	35%	67%	87%	94%	effective	0%	0%	22%	91%	–	–	–	35%	–	–
Cn1c(=O)n(Cc2ccc(O)c(O)c2)c(=O)c2c1ncn2Cc1ccc(O)c(O)c1 [PD-151, 3-Methyl-1,7-bis(3′,4′-dihydroxybenzyl)xanthine]	13%	12%	47%	63%	18%	20%	56%	87%	94%	–	0%	0%	0%	78%	3%	1%	6%	22%	–	–
Cn1c(=O)c2c(ncn2Cc2ccc(O)c(O)c2)n(Cc2ccc(O)c(O)c2)c1=O [PD-152]	4%	21%	48%	59%	12%	13%	54%	87%	91%	–	0%	0%	0%	72%	0%	6%	19%	22%	–	–
Cn1c(=O)c2c(nc(-c3ccc(O)c(O)c3)n2C)n(C)c1=O [PD-153, 1,3,7-trimethyl-8-(3′,4′-dihydroxyoxyphenyl)xanthine]	7%	20%	19%	20%	5%	0%	6%	17%	63%	–	13%	23%	0%	80%	1%	2%	6%	18%	–	–
